Assay results: patent US20140193827A1 (TEVA PHARMACEUTICAL INDUSTRIES, LTD., priority 2013, published 2014)

System: GA-primed murine splenocytes
Test: ANOVA-based pattern identification method
Type: cell-based, mouse
Source text: We sought to identify probes matching specific patterns of expression across experimental conditions using a technique that referred to as the ANOVA-based Pattern Identification Method.
To carry out the analysis in a general manner, we computed the 6 p-values required to do pairwise comparisons of all 4 conditions for all probes using the ANOVA1 function in MATLAB. We then identified sets of probes matching the desired pattern. In the example above, probes were identified as being only affected by PG if their 6 pairwise comparison pvalues matched the following pattern (pGA-PG<0.05, pPG-reference standard<0.05, pPG-Medium<0.05, pGAMedium>0.05, pGA-reference standard>0.05, preference standard-Medium>0.05).

[1] = DOWN IN GA AND REF ONLY, first line for this gene
[2] = DOWN IN GA AND REF ONLY, second line for this gene

In the case of glatiramer acetate [GA], the “average expression of LOC382163” value (DOWN IN GA AND REF ONLY) is reported as 6.742, the “average expression of LOC383099” value (DOWN IN GA AND REF ONLY) is reported as 13.14 and the “average expression of LOC386085” value (DOWN IN GA AND REF ONLY) is reported as 6.21. The “average expression of LOC386117” value (DOWN IN GA AND REF ONLY) was 7.052, the “average expression of LOC636818” value (DOWN IN GA AND REF ONLY) was 5.986 and the “average expression of LOC100046003” value (DOWN IN GA AND REF ONLY) was 8.735. The “average expression of LYNX1” value (DOWN IN GA AND REF ONLY) was 8.531, the “average expression of MBD1” value (DOWN IN GA AND REF ONLY) was 9.009 and the “average expression of MBL1” value (DOWN IN GA AND REF ONLY) was 5.552. The “average expression of MKL1” value (DOWN IN GA AND REF ONLY) was 6.303, the “average expression of MREG” value (DOWN IN GA AND REF ONLY) was 8.88 and the “average expression of MYO7A” value (DOWN IN GA AND REF ONLY) was 6.668. The “average expression of NEURL” value (DOWN IN GA AND REF ONLY) was 5.956, the “average expression of NISCH” value (DOWN IN GA AND REF ONLY) was 7.088 and the “average expression of NOS3” value (DOWN IN GA AND REF ONLY) was 5.804. For the same substance, the “average expression of NTE” value (DOWN IN GA AND REF ONLY) was 8.3088, the “average expression of OLFR150” value (DOWN IN GA AND REF ONLY) was 5.626 and the “average expression of OLFR516” value (DOWN IN GA AND REF ONLY) was 5.76. For the same substance, the “average expression of OLFR586” value (DOWN IN GA AND REF ONLY) was 5.541, the “average expression of OPHN1” value (DOWN IN GA AND REF ONLY) was 5.71 and the “average expression of ORF19” value (DOWN IN GA AND REF ONLY) was 6.879. The “average expression of P2RX4” value (DOWN IN GA AND REF ONLY) was 7.358, the “average expression of PAPSS2” value (DOWN IN GA AND REF ONLY) was 6.662 and the “average expression of PARD3B” value (DOWN IN GA AND REF ONLY) was 5.905. The “average expression of PCBP2” value (DOWN IN GA AND REF ONLY) was 12.63, the “average expression of PCDH19” value (DOWN IN GA AND REF ONLY) was 5.63 and the “average expression of PEO1” value (DOWN IN GA AND REF ONLY) was 7.1356. The “average expression of PI4KB” value (DOWN IN GA AND REF ONLY) was 9.544, the “average expression of PIK3R6” value (DOWN IN GA AND REF ONLY) was 6.343 and the “average expression of PLEKHB2” value (DOWN IN GA AND REF ONLY) was 9.006. For the same substance, the “average expression of PREP” value (DOWN IN GA AND REF ONLY) was 7.918, the “average expression of PRKCZ” value (DOWN IN GA AND REF ONLY) was 6.967 and the “average expression of PROM” value (DOWN IN GA AND REF ONLY) was 5.87. For the same substance, the “average expression of RARG” value (DOWN IN GA AND REF ONLY) was 6.121, the “average expression of RASGRF1” value (DOWN IN GA AND REF ONLY) was 5.764 and the “average expression of RBM15” value (DOWN IN GA AND REF ONLY) was 7.902. The “average expression of RCCD1” value (DOWN IN GA AND REF ONLY) was 8.174, the “average expression of REN1” value (DOWN IN GA AND REF ONLY) was 5.599 and the “average expression of RFFL” value (DOWN IN GA AND REF ONLY) was 7.211. The “average expression of RHBDD1” value (DOWN IN GA AND REF ONLY) was 7.627, the “average expression of RING1” value (DOWN IN GA AND REF ONLY) was 8.656 and the “average expression of RNF10” value (DOWN IN GA AND REF ONLY) was 11.45. For the same substance, the “average expression of RNF123” value (DOWN IN GA AND REF ONLY) was 7.4966, the “average expression of S031414D18RIK” value (DOWN IN GA AND REF ONLY) was 8.467 and the “average expression of SCL0004023.1_57” value (DOWN IN GA AND REF ONLY) was 5.99. The “average expression of SEC16A” value (DOWN IN GA AND REF ONLY) was 9.968, the “average expression of SETD1A” value (DOWN IN GA AND REF ONLY) was 8.956 and the “average expression of SFXN3” value (DOWN IN GA AND REF ONLY) was 6.025. The “average expression of SGPL1” value (DOWN IN GA AND REF ONLY) was 7.481, the “average expression of SHC1” value (DOWN IN GA AND REF ONLY) was 11.03 and the “average expression of SHKBP1” value (DOWN IN GA AND REF ONLY) was 8.287. For the same substance, the “average expression of SLC9A4” value (DOWN IN GA AND REF ONLY) was 5.715, the “average expression of SLC25A42” value (DOWN IN GA AND REF ONLY) was 6.212 and the “average expression of SLC35E4” value (DOWN IN GA AND REF ONLY) was 5.806. The “average expression of SLCO6C1” value (DOWN IN GA AND REF ONLY) was 5.618, the “average expression of SMARCE1” value (DOWN IN GA AND REF ONLY) was 9.332 and the “average expression of SNX15” value (DOWN IN GA AND REF ONLY) was 9.294. For the same substance, the “average expression of SNX33” value (DOWN IN GA AND REF ONLY) was 6.987, the “average expression of SOLH” value (DOWN IN GA AND REF ONLY) was 7.952 and the “average expression of SP2” value (DOWN IN GA AND REF ONLY) was 6.867. The “average expression of SRGAP2” value (DOWN IN GA AND REF ONLY) was 7.797, the “average expression of SRGAP3” value (DOWN IN GA AND REF ONLY) was 6.074 and the “average expression of STARD3” value (DOWN IN GA AND REF ONLY) was 8.435. The “average expression of TBC1D2” value (DOWN IN GA AND REF ONLY) was 6.839, the “average expression of TBC1D25” value (DOWN IN GA AND REF ONLY) was 7.965 and the “average expression of TEAD4” value (DOWN IN GA AND REF ONLY) was 5.994. For the same substance, the “average expression of TGFBI” value (DOWN IN GA AND REF ONLY) was 6.19, the “average expression of TGIF1” value (DOWN IN GA AND REF ONLY) was 8.224 and the “average expression of TIMM8A2” value (DOWN IN GA AND REF ONLY) was 5.837. For the same substance, the “average expression of TLR13” value (DOWN IN GA AND REF ONLY) was 6.019, the “average expression of TMEM56” value (DOWN IN GA AND REF ONLY) was 5.549 and the “average expression of TMEM63A” value (DOWN IN GA AND REF ONLY) was 7.667. For the same substance, the “average expression of TMUB1” value (DOWN IN GA AND REF ONLY) was 8.55, the “average expression of TNS4” value (DOWN IN GA AND REF ONLY) was 5.759 and the “average expression of TRP53” value (DOWN IN GA AND REF ONLY) was 9.698. For the same substance, the “average expression of TYROBP” value (DOWN IN GA AND REF ONLY) was 7.408, the “average expression of USP11” value (DOWN IN GA AND REF ONLY) was 6.423 and the “average expression of USP22” value (DOWN IN GA AND REF ONLY) was 9.057. For the same substance, the “average expression of USP54” value (DOWN IN GA AND REF ONLY) was 6.972, the “average expression of WWP2” value (DOWN IN GA AND REF ONLY) was 8.833 and the “average expression of ZC3H12A” value (DOWN IN GA AND REF ONLY) was 8.215. The “average expression of ZFP36L1” value (DOWN IN GA AND REF ONLY) was 13.82, the “average expression of ZFP317” value (DOWN IN GA AND REF ONLY) was 7.218 and the “average expression of ZFP704” value (DOWN IN GA AND REF ONLY) was 5.829. The “average expression of ZFPL1” value (DOWN IN GA AND REF ONLY) was 7.39, the genericLS expression level (DOWN IN GA AND REF ONLY) was 6.212 and the “average expression of CLEC4B1” value [1] was 5.984. For the same substance, the “average expression of LOC100048105” value [1] was 13.17, the “average expression of SLC11A1” value [1] was 6.429 and the “average expression of CLEC4B1” value [2] was 5.725. For the same substance, the “average expression of LOC100048105” value [2] was 13.47, the “average expression of SLC11A1” value [2] was 6.896 and the “average expression of GAS7” value (DOWN IN GA AND REF ONLY, second line for this gene (first at r2479)) was 6.6505. The 29D0003A17RIK expression level (DOWN IN generic ONLY) was 6.032, the 1700081L16RIK expression level (DOWN IN generic ONLY) was 5.561 and the 2210003I03RIK expression level (DOWN IN generic ONLY) was 5.693. For the same substance, the 3110052M02RIK expression level (DOWN IN generic ONLY) was 5.651, the 3110079O15RIK expression level (DOWN IN generic ONLY) was 5.642 and the 4833419KD8RIK expression level (DOWN IN generic ONLY) was 5.588. The 4921522P10RIK expression level (DOWN IN generic ONLY) was 5.793, the 4930543E05RIK expression level (DOWN IN generic ONLY) was 5.681 and the 4930571C24RIK expression level (DOWN IN generic ONLY) was 5.414. It also gave a 5730599A22RIK expression level (DOWN IN generic ONLY) of 5.675, a 6430527G18RIK expression level (DOWN IN generic ONLY) of 5.618 and a 6720487G11RIK expression level (DOWN IN generic ONLY) of 5.949. For the same substance, the A230066D03RIK expression level (DOWN IN generic ONLY) was 5.913, the A530088H08RIK expression level (DOWN IN generic ONLY) was 5.838 and the A830021M18 expression level (DOWN IN generic ONLY) was 5.662. It also gave an ADAMTSL3 expression level (DOWN IN generic ONLY) of 5.806, a B230323D24RIK expression level (DOWN IN generic ONLY) of 5.81 and a BRPF1 expression level (DOWN IN generic ONLY) of 8.958. For the same substance, the BTF3L4 expression level (DOWN IN generic ONLY) was 5.682, the C430020E23RIK expression level (DOWN IN generic ONLY) was 5.906 and the CNTN2 expression level (DOWN IN generic ONLY) was 5.729. It also gave a CORO1B expression level (DOWN IN generic ONLY) of 11.36, a CRAT expression level (DOWN IN generic ONLY) of 5.921 and a CREBZF expression level (DOWN IN generic ONLY) of 5.66. For the same substance, the D130050A01RIK expression level (DOWN IN generic ONLY) was 5.633, the D130061E05RIK expression level (DOWN IN generic ONLY) was 5.723 and the D130063P19RIK expression level (DOWN IN generic ONLY) was 5.768. The D530031C13RIK expression level (DOWN IN generic ONLY) was 5.728, the DLG1 expression level (DOWN IN generic ONLY) was 5.734 and the EFCAB1 expression level (DOWN IN generic ONLY) was 5.72. The EG634762 expression level (DOWN IN generic ONLY) was 5.772, the ELMO2 expression level (DOWN IN generic ONLY) was 5.907 and the ENSMUSG00000071316 expression level (DOWN IN generic ONLY) was 5.766. The EZH2 expression level (DOWN IN generic ONLY) was 5.625.
